This note sets out measurements from patent publication US20230143604A1, “QW DOSING OF GIP RECEPTOR AGONIST PEPTIDE COMPOUNDS AND USES THEREOF” (TAKEDA PHARMACEUTICAL COMPANY LIMITED, priority 2020, published 2023).

Molecules are shown by their SMILES. Starred links: 1 amine or outer side, 2 acyl side, 3 side chain; linkers in the order of their positions; H or OH if unused. Non-standard residues stand in square brackets, D forms with d. Residues, ends and D or L forms follow the SMILES beside them. Groups on a side chain read outwards from the residue. *: point of attachment. C18 diacid = O=C(O)CCCCCCCCCCCCCCCCC(=O)*; C17 diacid = O=C(O)CCCCCCCCCCCCCCCC(=O)*; γGlu = O=C(O)[C@H](CCC(=O)[*:2])N[*:1]; NMeY = CN[C@@H](Cc1ccc(O)cc1)C(=O)O; AEEA = NCCOCCOCC(=O)O; Aib = CC(C)(N)C(=O)O Where only a bound is given, the exact number is not on record here.

This data set is described as follows: physchem. The method in brief:
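Solubility at pH 7.4 determined by stepwise addition of 200 mM phosphate buffer in 100 μL increments to 3 mg peptide, mixing briefly each time, until no insoluble material remained, then measured by liquid chromatography.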

The mark [1] stands for this setting: pH 7.4, aqueous buffer, pH 7.4 Phosphate Buffer - Solubility, 200 mM Phosphate buffer pH 7.4.

As a reminder, the solubility is the dissolved amount per volume that the medium holds. Regarding `CC[C@H](C)[C@H](NC(=O)[C@H](Cc1ccccc1)NC(=O)[C@@H](NC(=O)CNC(=O)[C@H](CCC(=O)O)NC(=O)C(C)(C)NC(=O)[C@H](Cc1ccc(O)cc1)NC)[C@@H](C)O)C(=O)N[C@@H](CO)C(=O)N[C@@H](CC(=O)O)C(=O)N[C@@H](Cc1ccc(O)cc1)C(=O)N[C@@H](CO)C(=O)N[C@H](C(=O)NC(C)(C)C(=O)N[C@@H](CCCCNC(=O)CNC(=O)CNC(=O)CNC(=O)CNC(=O)CNC(=O)CC[C@H](NC(=O)CC[C@H](NC(=O)CCCCCCCCCCCCCCCC(=O)O)C(=O)O)C(=O)O)C(=O)N[C@@H](CC(=O)O)C(=O)N[C@@H](CCCNC(=N)N)C(=O)NC(C)(C)C(=O)N[C@@H](C)C(=O)N[C@@H](CCC(N)=O)C(=O)NC(C)(C)C(=O)N[C@@H](CC(N)=O)C(=O)N[C@@H](Cc1ccccc1)C(=O)N[C@H](C(=O)N[C@@H](CC(N)=O)C(=O)N[C@@H](Cc1c[nH]c2ccccc12)C(=O)N[C@@H](CC(C)C)C(=O)N[C@@H](CC(C)C)C(=O)N[C@@H](C)C(=O)N[C@@H](CCC(N)=O)C(=O)N[C@@H](CCCNC(=N)N)C(N)=O)C(C)C)[C@@H](C)CC` [Compound 264], for the setting “pH 7.4, aqueous buffer”, the solubility was less than 6 mg/mL.

Take `CC[C@H](C)[C@H](NC(=O)[C@H](Cc1ccccc1)NC(=O)[C@@H](NC(=O)CNC(=O)[C@H](CCC(=O)O)NC(=O)C(C)(C)NC(=O)[C@H](Cc1ccc(O)cc1)NC)[C@@H](C)O)C(=O)N[C@@H](CO)C(=O)N[C@@H](CC(=O)O)C(=O)N[C@@H](Cc1ccc(O)cc1)C(=O)N[C@@H](CO)C(=O)N[C@H](C(=O)NC(C)(C)C(=O)N[C@@H](CCCCNC(=O)COCCOCCNC(=O)COCCOCCNC(=O)CC[C@H](NC(=O)CCCCCCCCCCCCCCCC(=O)O)C(=O)O)C(=O)N[C@@H](CC(=O)O)C(=O)N[C@@H](CCCNC(=N)N)C(=O)NC(C)(C)C(=O)N[C@@H](C)C(=O)N[C@@H](CCC(N)=O)C(=O)NC(C)(C)C(=O)N[C@@H](CC(N)=O)C(=O)N[C@@H](Cc1ccccc1)C(=O)N[C@H](C(=O)N[C@@H](CC(N)=O)C(=O)N[C@@H](Cc1c[nH]c2ccccc12)C(=O)N[C@@H](CC(C)C)C(=O)N[C@@H](CC(C)C)C(=O)N[C@@H](C)C(=O)N[C@@H](CCC(N)=O)C(=O)N[C@@H](CCCNC(=N)N)C(=O)N1CCC[C@H]1C(=O)N[C@@H](CO)C(=O)N[C@@H](CO)C(=O)NCC(=O)N[C@@H](C)C(=O)N1CCC[C@H]1C(=O)N1CCC[C@H]1C(=O)N1CCC[C@H]1C(=O)N[C@@H](CO)C(N)=O)C(C)C)[C@@H](C)CC` [Compound 263] (H-[NMeY][Aib]EGTFISDYSI[Aib]K([AEEA-AEEA-γGlu-C17 diacid])DR[Aib]AQ[Aib]NFVNWLLAQRPSSGAPPPS-NH2): the solubility under setting [1] was no less than 7.5 mg/mL.

Turning to `CC[C@H](C)[C@H](NC(=O)[C@H](Cc1ccccc1)NC(=O)[C@@H](NC(=O)CNC(=O)[C@H](CCC(=O)O)NC(=O)C(C)(C)NC(=O)[C@@H](N)Cc1ccc(O)cc1)[C@@H](C)O)C(=O)N[C@@H](CO)C(=O)N[C@@H](CC(=O)O)C(=O)N[C@@H](Cc1ccc(O)cc1)C(=O)N[C@@H](CO)C(=O)N[C@H](C(=O)NC(C)(C)C(=O)N[C@@H](CCCCNC(=O)CNC(=O)CNC(=O)CNC(=O)CNC(=O)CNC(=O)CCCCCCCCCCCCCCCCC(=O)O)C(=O)N[C@@H](CC(=O)O)C(=O)N[C@@H](CCCNC(=N)N)C(=O)NC(C)(C)C(=O)N[C@@H](C)C(=O)N[C@@H](CCC(N)=O)C(=O)N[C@@H](CCCNC(=N)N)C(=O)N[C@@H](CC(=O)O)C(=O)N[C@@H](Cc1ccccc1)C(=O)N[C@H](C(=O)N[C@@H](CCC(=O)O)C(=O)N[C@@H](Cc1c[nH]c2ccccc12)C(=O)N[C@@H](CC(C)C)C(=O)N[C@@H](CC(C)C)C(=O)N[C@@H](C)C(=O)N[C@@H](CCC(N)=O)C(=O)N[C@@H](CCCNC(=N)N)C(=O)NCC(=O)O)C(C)C)[C@@H](C)CC` [Compound 147], the solubility (pH 7.4) was no less than 15 mg/mL.

The compound `CC[C@H](C)[C@H](NC(=O)[C@H](Cc1ccccc1)NC(=O)[C@@H](NC(=O)CNC(=O)[C@H](CCC(=O)O)NC(=O)C(C)(C)NC(=O)[C@H](Cc1ccc(O)cc1)NC)[C@@H](C)O)C(=O)N[C@@H](CO)C(=O)N[C@@H](CC(=O)O)C(=O)N[C@@H](Cc1ccc(O)cc1)C(=O)N[C@@H](CO)C(=O)N[C@H](C(=O)NC(C)(C)C(=O)N[C@@H](CCCCNC(=O)CNC(=O)CNC(=O)CNC(=O)CNC(=O)CNC(=O)CC[C@H](NC(=O)CCCCCCCCCCCCCCCC(=O)O)C(=O)O)C(=O)N[C@@H](CC(=O)O)C(=O)N[C@@H](CCCNC(=N)N)C(=O)NC(C)(C)C(=O)N[C@@H](C)C(=O)N[C@@H](CCC(N)=O)C(=O)NC(C)(C)C(=O)N[C@@H](CC(N)=O)C(=O)N[C@@H](Cc1ccccc1)C(=O)N[C@H](C(=O)N[C@@H](CC(N)=O)C(=O)N[C@@H](Cc1c[nH]c2ccccc12)C(=O)N[C@@H](CC(C)C)C(=O)N[C@@H](CC(C)C)C(=O)N[C@@H](C)C(=O)N[C@@H](CCC(N)=O)C(=O)N[C@@H](CCCNC(=N)N)C(=O)N1CCC[C@H]1C(=O)N[C@@H](CO)C(=O)N[C@@H](CO)C(=O)NCC(=O)N[C@@H](C)C(=O)N1CCC[C@H]1C(=O)N1CCC[C@H]1C(=O)N1CCC[C@H]1C(=O)N[C@@H](CO)C(N)=O)C(C)C)[C@@H](C)CC` [Compound 261] registered a solubility under setting [1] of less than 6 mg/mL.

For `CC[C@H](C)[C@H](NC(=O)[C@H](Cc1ccccc1)NC(=O)[C@@H](NC(=O)CNC(=O)[C@H](CCC(=O)O)NC(=O)C(C)(C)NC(=O)[C@H](Cc1ccc(O)cc1)NC)[C@@H](C)O)C(=O)N[C@@H](CO)C(=O)N[C@@H](CC(=O)O)C(=O)N[C@@H](Cc1ccc(O)cc1)C(=O)N[C@@H](CO)C(=O)N[C@H](C(=O)NC(C)(C)C(=O)N[C@@H](CC(C)C)C(=O)N[C@@H](CC(=O)O)C(=O)N[C@@H](CCCNC(=N)N)C(=O)NC(C)(C)C(=O)N[C@@H](C)C(=O)N[C@@H](CCC(N)=O)C(=O)NC(C)(C)C(=O)N[C@@H](CCCCNC(=O)COCCOCCNC(=O)COCCOCCNC(=O)CC[C@H](NC(=O)CCCCCCCCCCCCCCCCC(=O)O)C(=O)O)C(=O)N[C@@H](Cc1ccccc1)C(=O)N[C@H](C(=O)N[C@@H](CC(N)=O)C(=O)N[C@@H](Cc1c[nH]c2ccccc12)C(=O)N[C@@H](CC(C)C)C(=O)N[C@@H](CC(C)C)C(=O)N[C@@H](C)C(=O)N[C@@H](CCC(N)=O)C(=O)N[C@@H](CO)C(=O)N1CCC[C@H]1C(=O)N[C@@H](CO)C(=O)N[C@@H](CO)C(=O)NCC(=O)N[C@@H](C)C(=O)N1CCC[C@H]1C(=O)N1CCC[C@H]1C(=O)N1CCC[C@H]1C(=O)N[C@@H](CO)C(N)=O)C(C)C)[C@@H](C)CC` [Compound 91] (H-[NMeY][Aib]EGTFISDYSI[Aib]LDR[Aib]AQ[Aib]K([AEEA-AEEA-γGlu-C18 diacid])FVNWLLAQSPSSGAPPPS-NH2), the solubility is no less than 60 mg/mL under setting [1] and no less than 15 mg/mL (pH 7.4, solubility in phosphate buffer at pH 7.4, 200 mM phosphate buffer pH 7.4).
